According to patent US12564631B2, “Phytosphingosine derivatives as adjuvants in immune stimulation” (Helmholtz-Zentrum für Infektionsforschung GmbH, priority 2020, dated 2026):
Entries after “also recorded” stand apart in the source; their conditions may differ.

Columns and labels:
[1] = tested on: CD4+ T cells; experiment: CFSE proliferation assay of CD4+ T cells after interaction with Ova/adjuvant-matured bone marrow derived DCs (APC); type: cell-based, mice; conditions: for stimulating effect of CD4+ T cells versus controls with only antigen Ova: CFSE loss up to 7 days, DCs activated with Ova + 10 μg compound, FIG. 4A/4B
From the text: FIG. 3B: Cell proliferation tracked by CFSE dilution of CD4+ T cells after interaction with matured Antigen Presenting Cells (APC). With every cell division, the CFSE signal strength is approximately halved. The shown cell numbers indicate the ratio of proliferated live CD4+ T cells.
(§1) FIG. 4: Effect after treatment with IPB 0964-1917—Cell proliferation tracked by CFSE loss of T cells after interaction with matured Antigen Presenting Cells (APC). With every cell division, the CFSE signal strength is reduced. The shown cell numbers indicate the ratio of proliferating T and B cells (7 steps are shown). (A) Numbers of CD4+ T cells are shown at different proliferation steps up to 7 days measuring the loss of CFSE. Naïve cells were treated with one of IPB1901-1912 together with DCs activated with Ova prior to the CFSE assay. (B) Numbers of CD4+ T cells are shown at different proliferation steps up to 7 days measuring the loss of CFSE. Naïve cells were treated with one of IPB2033-2044 together with DCs activated with Ova prior to the CFSE assay. (C) Numbers of CD8+ T cells are shown at different proliferation steps up to 7 days measuring the loss of CFSE. Naïve cells were treated with one of IPB1901-1912 together with DCs activated with Ova prior to the CFSE assay. (D) Numbers of CD8+ T cells are shown at different proliferation steps up to 7 days measuring the loss of CFSE. Naïve cells were treated with one of IPB2033-2044 together with DCs activated with Ova prior to the CFSE assay.
(§2) In order to assess the properties of the inventive compounds in antigen-specific T and B cell stimulation, the compounds were administered to cultured bone marrow cells in a CFSE assay.
(§3) Briefly, femurs and Tibiae of female 4-12 weeks old C57Bl6 (or BALB/c for TCR HA) were removed and purified from the surrounding muscle tissue (Kleenex tissues). Intact Bones were left in 70% ethanol for 2-5 min for disinfection. Both ends were cut with scissors and the bone marrow were flushed with PBS using a syringe with a 0.45 mm diameter needle, clusters were disintegrated by vigorous pipetting.
(§4) In order to obtain activated antigen presenting dendritic cells (DCs), bone marrow cells were cultured with GM-CSF. On Day 0, cells were seeded in a concentration of 2×10^6 cells per 100 mm dish (bacteriological petri dishes) in 10 ml RPMI-10 (100 U Pen/100 μg Strept/2 mM Glutamin/50 μm ß-Mercaptoethanol/10% FCS heat-inactivated and filtered 0.22 μm Filter) containing 200 Units GM-CSF. On Day 3 another 10 ml RPMI-10 containing 200 U GM-CSF were added to the plates. On Day 6 half of the culture supernatants (10 ml) were collected, centrifuged and the cell pellet resuspended in 10 ml fresh RPMI-10/200 U GM-CSF and given back into the original plates.
(§5) Subsequently, the DCs were incubated with Ovalbumin (as antigen) alone or co-administered with known adjuvants, such as α-GalCerMPEG, aßGalCerMPEG or TLR2/6 ligand (BPPcysMPEG), or the novel phytosphingosine derivatives of the present invention. The activation of DCs was controlled by FACS analysis of different CD markers, such as CD40, CD54, CD80, CD86, CD83, MHCI and MHCII.
(§6) The effect of the compounds of the present invention was then ascertained via co-incubation of naïve T or B cells, obtained from mice (OTI or OTII mice) with previous exposure to the Ova antigen, with DCs that had been treated with the compounds of the invention.
(§7) Naïve T cells were derived from LN/spleen from OTI or OTII mice. The MagniSort™ Mouse CD4 naïve or CD8 naïve T cell Enrichment Kit is designed for the magnetic separation of CD4 or CD8 naïve T cells by negative selection from mouse spleens or lymph nodes utilizing a biotinylated antibody cocktail and streptavidin-coated magnetic beads. Undesired cells are bound by antibody (Anti-Mouse CD8 or CD4/CD11b CD19/CD24/CD44/CD45R(B220)/CD49b(Integrin α 2)/Ly-6G (Gr-1)/γδ TCR/TER-119) and then magnetic beads that, when placed in a magnetic field, leave CD4 or CD8 naïve T cells untouched and free in solution. […]

[2] = tested on: CD8+ T cells; experiment: CFSE proliferation assay of CD8+ T cells after interaction with Ova/adjuvant-matured bone marrow derived DCs (APC); type: cell-based, mice
From the text: FIG. 3C: Cell proliferation tracked by CFSE dilution of CD8+ T cells after interaction with matured Antigen Presenting Cells (APC). With every cell division, the CFSE signal strength is approximately halved. The shown cell numbers indicate the ratio of proliferated live CD8+ T cells
as §1, §2, §3, §4, §5, §6, §7

[3] = tested on: Ova-specific IgG; experiment: Ova-specific IgG titer (ELISA) in sera of mice immunized with Ovalbumin plus adjuvant; type: in vivo; conditions: Ovalbumin 30 μg + adjuvant 15 μg, days 0, 14, 28, sera 14 days after last immunization
Protocol: FIG. 5: Immunization protocol—Administration (intramuscular route) of Ovalbumin with adjuvants. Ovalbumin (30 μg) was co-administered (intramuscular) without or with different adjuvants, such as IPB 2033-2044, c-di-AMP or aßGalCerMPEG (15 μg), on days 0, 14 and 28.
(§8) FIG. 7: Systemic humoral immune responses induced in mice. Shown is the IgG titer as a readout of systemic humoral immune responses induced in mice after three immunizations with Ovalbumin co-administered with different adjuvants via intramuscular route. Ova-specific IgG titers were measured via ELISA in sera 14 days after the last immunization.
FIG. 9: Immunization protocol—Administration (intranasal route) of Ovalbumin with adjuvants. Immunization protocol: Mucosal administration (intranasal (i.n.) route) of Ovalbumin (30 μg) co-administered without or with different adjuvants, such as IPB 2033-2044, c-di-AMP or aßGalCerMPEG (15 μg), on days 0, 14 and 28.
as §8, with “11:” for “7:”, “intranasal” for “intramuscular”, “titers” for “titers were measured via ELISA”
Groups of mice (3-5 animals) were immunized either intranasal (i.n.) or intramuscular (i.m.) on days 0, 14 and 281 with PBS, or with Ovalbumin (30 μg); the latter were administered alone or with different adjuvants—c-di-AMP, aßGalCerMPEG or IPB 2033 to 2044—made up to a maximal volume of 20 μl (i.n.) or 50 μl (i.m.) in PBS.
Blood samples were collected on days 1, 14, 28 and 42 via retro-bulbar bleeding. Spleens of vaccinated mice were aseptically removed. For the subsequent methods, cell suspensions of spleens (n=5) of each immunized groups were prepared and erythrocytes were lysed. These splenocyte pools of each group were cultured in the presence of different concentrations of Ovalbumin; controls received 5 μg/mL concanavalin A. The incorporation of [^3H] thymidine into the DNA of proliferating cells was determined using a scintillation counter (Wallac 1450, Micro-Trilux).
The Ova-specific antibodies were determined in serum samples by ELISA. Endpoint titers were expressed as reciprocal values of the last dilution, which gave an optical density at 405 nm of two times above the values of the negative controls. For calculation purposes, negative samples were assigned an arbitrary titer of the lowest dilution measured.
As described in the protocols above, groups of mice (3-5 animals) were immunized either intranasal (i.n.) or intramuscular (i.m.) on days 0, 14 and 281 with PBS, or with Ovalbumin (30 μg); the latter were administered alone or with different adjuvants—c-di-AMP, aßGalCerMPEG or IPB 2033 to 2044—is shown in FIG. 5-11, intramuscular.

| Compound | stimulating effect of CD4+ T cells versus controls with only antigen Ova [1] | stimulating effect of CD8+ T cells versus controls with only antigen Ova ([2]; CFSE loss up to 7 days, DCs activated with Ova + 10 μg compound, FIG. 4C/4D) | stimulation of antigen specific IgG production compared to control aßGalCerMPEG+ova ([3]; intramuscular (i.m.), FIG. 7) | stimulation of antigen specific IgG production compared to control aßGalCerMPEG+ova ([3]; intranasal (i.n.), FIG. 11) | capacity to induce antigen specific CD4+ T cell proliferation ([1]; DCs restimulated with Ovalbumin + 10 μg compound for 24 h, interaction with APC for 5 days, FIG. 3B) | effect to induce antigen specific CD8+ T cell proliferation ([2]; DCs restimulated with Ovalbumin + 10 μg compound for 24 h, interaction with APC for 5 days, FIG. 3C) |
| --- | --- | --- | --- | --- | --- | --- |
| CCCCCCCCCCCCCCCCCCCCCCCCCC(=O)N(CC(=O)NC1CCCCC1)[C@@H](CO[C@H]1OC(CO)[C@H](O)C(O)C1O)[C@H](O)[C@H](O)CCCCCCCCCCCCCC (stereo partly drawn) [IPB 2039] | stimulating effect of CD4+ T cells beyond controls | stimulating effect of CD8+ T cells beyond controls | improved stimulation | improved stimulation |  |  |
| CCCCCCCCCCCCCCCCCCCCCCCCCC(=O)N(CC(=O)NCCOCCOCCOCCOC)[C@@H](CO[C@H]1OC(CO)[C@H](O)[C@H](O)C1O)[C@H](O)[C@H](O)CCCCCCCCCCCCCC (stereo partly drawn) [IPB 2034] |  |  | improved stimulation | at least equivalent |  |  |
| CCCCCCCCCCCCCCCCCCCCCCCC(=O)N(CC(=O)NCCC(=O)O)[C@@H](CO[C@H]1OC(CO)[C@H](O)C(O)C1O)[C@H](O)[C@H](O)CCCCCCCCCCCCCC (stereo partly drawn) [IPB 0964] |  |  |  |  | high capacity | strong effect; also recorded: beneficial effect |
| CCCCCCCCCCCCCCCCCCCCCCCCCC(=O)N(CC(=O)NCCOCCOCCOCCOCCOC)[C@@H](CO[C@H]1OC(CO)[C@H](O)[C@H](O)C1O)[C@H](O)[C@H](O)CCCCCCCCCCCCCC (stereo partly drawn) [IPB 2044] |  |  | at least equivalent | at least equivalent |  |  |
| CCCCCCCCCCCCCCCCCCCCCCCCCC(=O)N(CC(=O)NCCCCCCN)[C@@H](CO[C@H]1OC(CO)[C@H](O)C(O)C1O)[C@H](O)[C@H](O)CCCCCCCCCCCCCC (stereo partly drawn) [IPB 2035] |  |  | improved stimulation | at least equivalent |  |  |
| CCCCCCCCCCCCCCCCCCCCCCCCCC(=O)N(CC(=O)NCCCCCCCCCCCCCCCCCC)[C@@H](CO[C@H]1OC(CO)[C@H](O)C(O)C1O)[C@H](O)[C@H](O)CCCCCCCCCCCCCC (stereo partly drawn) [IPB 2033] |  |  | improved stimulation | improved stimulation |  |  |
| CCCCCCCCCCCCCCCCCCCCCCCCCC(=O)N(CC(=O)NCCN1C(=O)c2cccc3c(N(C)C)ccc(c23)C1=O)[C@@H](CO[C@H]1OC(CO)[C@H](O)C(O)C1O)[C@H](O)[C@H](O)CCCCCCCCCCCCCC (stereo partly drawn) [IPB 2041] |  |  | at least equivalent | improved stimulation |  |  |
| CCCCCCCCCCCCCCCCCCCCCCCCCC(=O)N(CC(=O)NCC(OC)OC)[C@@H](CO[C@H]1OC(CO)[C@H](O)C(O)C1O)[C@H](O)[C@H](O)CCCCCCCCCCCCCC (stereo partly drawn) [IPB 2038] | stimulating effect of CD4+ T cells beyond controls |  | at least equivalent | improved stimulation |  |  |
| CCCCCCCCCCCCCCCCCCCCCCCCCC(=O)N(CC(=O)NCCC(=O)OC(C)(C)C)[C@@H](CO[C@H]1OC(CO)[C@H](O)C(O)C1O)[C@H](O)[C@H](O)CCCCCCCCCCCCCC (stereo partly drawn) [IPB 2043] |  |  | improved stimulation | improved stimulation |  |  |
| CCCCCCCCCCCCCCCCCCCCCCCC(=O)N(CC(=O)NCCCCCCCCCCCCCCCCCC)[C@@H](CO[C@H]1OC(CO)[C@H](O)C(O)C1O)[C@H](O)[C@H](O)CCCCCCCCCCCCCC (stereo partly drawn) [IPB 2040] |  |  | improved stimulation | improved stimulation |  |  |
| CCCCCCCCCCCCCCCCCCCCCCCCCC(=O)N(CC(=O)NCc1ccccc1)[C@@H](CO[C@H]1OC(CO)[C@H](O)C(O)C1O)[C@H](O)[C@H](O)CCCCCCCCCCCCCC (stereo partly drawn) [IPB 2042] |  |  | improved stimulation | improved stimulation |  |  |
| CCCCCCCCCCCCCCCCCCCCCCCCCC(=O)N(CC(=O)NCCCc1ccccc1)[C@@H](CO[C@H]1OC(CO)[C@H](O)C(O)C1O)[C@H](O)[C@H](O)CCCCCCCCCCCCCC (stereo partly drawn) [IPB 2037] |  |  | improved stimulation | at least equivalent |  |  |
